Results taken from patent publication US8957017B2, “Dipeptoid prodrugs and their use” (Bayer Intellectual Property GmbH, priority 2007, dated 2015).
Structures can show the parent of a compound that is named as a salt.

How the values were obtained:
[1] = Stability in buffer at various pH values; format: physicochemical
Description: b) Stability in Buffer at Various pH Values:
0.3 mg of the test substance is weighed into a 2 ml HPLC vial and 0.5 ml of acetonitrile or acetonitrile/DMSO (9:1) is added. The substance is dissolved by putting the sample vessel in an ultrasonic bath for about 10 seconds. Then 0.5 ml of the respective buffer solution is added, and the sample is again treated in the ultrasonic bath.
pH 2: 0.03 mol of citric acid, 0.061 mol of sodium chloride and 0.0082 mol of hydrochoric acid ad 1 liter of water;
pH 4: 1 liter of Millipore water is adjusted to pH 4.0 with 1 N hydrochloric acid;
pH 5: 0.096 mol of citric acid and 0.2 mol of sodium hydroxide ad 1 liter of water;
pH 6: 0.06 mol of citric acid and 0.16 mol of sodium hydroxide ad 1 liter of water;
pH 7.4: 90.0 g of sodium chloride, 13.61 g of potassium dihydrogen phosphate and 83.35 g of 1 N sodium hydroxide solution are made up to 1 liter with water; this solution is then further diluted 1:10 with Millipore water.
pH 8: 0.013 mol of borax and 0.021 mol of hydrochloric acid ad 1 liter of water.
5 μl portions of the test solution are analyzed by HPLC for their content of unchanged test substance, and of parent substance (A) produced, every hour over a period of 24 hours at 37° C. The percentage areas of the appropriate peaks are used for quantification.
The ratios of the peak areas (F) at the respective time points in relation to the peak areas at the starting time are shown in Table 2 for representative exemplary embodiments: […]

[2] = Determination of the solubility in 5% strength aqueous dextrose solution; format: physicochemical; details: saline or isotonic, thermodynamic from solid, room temperature, 24 h
Description: a) Determination of the Solubility:
The test substance is suspended in 5% strength aqueous dextrose solution. This suspension is shaken at room temperature for 24 h. After ultracentrifugation at 224 000 g for 30 min, the supernatant is diluted with DMSO and analysed by HPLC. A two-point calibration plot of the test compound in DMSO is used for quantification.
Agilent 1100 with DAD (G1315A), quat. Pump (G1311A), autosampler CTC HTS PAL, degasser (G1322A) and column thermostat (G1316A); column: Phenomenex Gemini C18, 5 μm, 50 mm×2 mm; temperature: 40° C.; eluent A: water/phosphoric acid pH 2, eluent B: acetonitrile; flow rate: 0.7 ml/min; gradient: 0-0.5 min 85% A, 15% B; ramp 0.5-3 min 10% A, 90% B; 3-3.5 min 10% A, 90% B; ramp 3.5-4 min 85% A, 15% B; 4-5 min 85% A, 15% B.
Agilent 1100 with DAD (G1315A), quat. pump (G1311A), autosampler CTC HTS PAL, degasser (G1322A) and column thermostat (G1316A); column: VDSoptilab Kromasil 100 C18, 3.5 μm, 60 mm×2.1 mm; temperature: 30° C.; eluent A: water+5 ml of perchloric acid/liter, eluent B: acetonitrile; flow rate: 0.75 ml/min; gradient: 0-0.5 min 98% A, 2% B; ramp 0.5-4.5 min 10% A, 90% B; 4.5-6 min 10% A, 90% B; ramp 6.5-6.7 min 98% A, 2% B; 6.7-7.5 min 98% A, 2% B.

CC(C)[C@H](NC(=O)CCN)C(=O)OCCOc1ccc(-c2c(C#N)c(N)nc(SCc3csc(-c4ccc(Cl)cc4)n3)c2C#N)cc1 [Example 2, 2-{4-[2-Amino-6-({[2-(4-chlorophenyl)-1,3-thiazol-4-yl]methyl}thio)-3,5-dicyanopyridin-4-yl]-phenoxy}ethyl β-alanyl-L-valinate hydrochloride]
% test substance after 4 h [F(t = 4 h) × 100/F(t = 0 h)] ([1]; pH 4, 37° C.): 100% | % test substance after 24 h [F(t = 24 h) × 100/F(t = 0 h)] ([1]; pH 4, 37° C.): 100% | % test substance after 4 h [F(t = 4 h) × 100/F(t = 0 h)] ([1]; pH 7.4, 37° C.): 100% | % test substance after 24 h [F(t = 24 h) × 100/F(t = 0 h)] ([1]; pH 7.4, 37° C.): 100%

CC(C)[C@H](NC(=O)[C@@H](N)CCCNC(=N)N)C(=O)OCCOc1ccc(-c2c(C#N)c(N)nc(SCc3csc(-c4ccc(Cl)cc4)n3)c2C#N)cc1 [Example 3, 2-{4-[2-Amino-6-({[2-(4-chlorophenyl)-1,3-thiazol-4-yl]methyl}thio)-3,5-dicyanopyridin-4-yl]-phenoxy}ethyl L-arginyl-L-valinate dihydrochloride]
solubility thermodynamic at 24 h [2]: 450 µg/mL | % test substance after 4 h [F(t = 4 h) × 100/F(t = 0 h)] ([1]; pH 4, 37° C.): 100% | % test substance after 24 h [F(t = 24 h) × 100/F(t = 0 h)] ([1]; pH 4, 37° C.): 100% | % test substance after 4 h [F(t = 4 h) × 100/F(t = 0 h)] ([1]; pH 7.4, 37° C.): 99% | % test substance after 24 h [F(t = 24 h) × 100/F(t = 0 h)] ([1]; pH 7.4, 37° C.): 55%

N#Cc1c(N)nc(SCc2csc(-c3ccc(Cl)cc3)n2)c(C#N)c1-c1ccc(OCCOC(=O)CC[C@H](NC(=O)CCC(=O)O)C(=O)O)cc1 [Example 9, (2S)-5-(2-{4-[2-Amino-6-({[2-(4-chlorophenyl)-1,3-thiazol-4-yl]methyl}thio)-3,5-dicyanopyridin-4-yl]phenoxy}ethoxy)-2-[(3-carboxypropanoyl)amino]-5-oxopentanoic acid]
% test substance after 4 h [F(t = 4 h) × 100/F(t = 0 h)] ([1]; pH 4, 37° C.): 100% | % test substance after 24 h [F(t = 24 h) × 100/F(t = 0 h)] ([1]; pH 4, 37° C.): 100% | % test substance after 4 h [F(t = 4 h) × 100/F(t = 0 h)] ([1]; pH 7.4, 37° C.): 100% | % test substance after 24 h [F(t = 24 h) × 100/F(t = 0 h)] ([1]; pH 7.4, 37° C.): 100%

N#Cc1c(N)nc(SCc2csc(-c3ccc(Cl)cc3)n2)c(C#N)c1-c1ccc(OCCOC(=O)CC[C@H](NC(=O)CCC(=O)O)C(=O)O)cc1 [Example 10, (2S)-5-(2-{4-[2-Amino-6-({[2-(4-chlorophenyl)-1,3-thiazol-4-yl]methyl}thio)-3,5-dicyanopyridin-4-yl]phenoxy}ethoxy)-2-[(3-carboxypropanoyl)amino]-5-oxopentanoic acid disodium salt]
solubility thermodynamic at 24 h [2]: 390 µg/mL | % test substance after 24 h [F(t = 24 h) × 100/F(t = 0 h)] ([1]; pH 4, 37° C., disodium salt): 99% | % test substance after 24 h [F(t = 24 h) × 100/F(t = 0 h)] ([1]; pH 7.4, 37° C., disodium salt): 99%

C[C@H](NC(=O)[C@@H](N)Cc1cnc[nH]1)C(=O)OCCOc1ccc(-c2c(C#N)c(N)nc(SCc3csc(-c4ccc(Cl)cc4)n3)c2C#N)cc1 [Example 15, 2-{4-[2-Amino-6-({[2-(4-chlorophenyl)-1,3-thiazol-4-yl]methyl}sulfanyl)-3,5-dicyanopyridin-4-yl]-phenoxy}ethyl L-histidyl-L-alaninate dihydrochloride]
solubility thermodynamic at 24 h [2]: 450 µg/mL

N#Cc1c(N)nc(SCc2csc(-c3ccc(Cl)cc3)n2)c(C#N)c1-c1ccc(OCCOC(=O)CNC(=O)[C@@H](N)CCCCN)cc1 [Example 17, 2-{4-[2-Amino-6-({[2-(4-chlorophenyl)-1,3-thiazol-4-yl]methyl}sulfanyl)-3,5-dicyanopyridin-4-yl]-phenoxy}ethyl L-lysylglycinate dihydrochloride]
solubility thermodynamic at 24 h [2]: > 500 µg/mL

N#Cc1c(N)nc(SCc2csc(-c3ccc(Cl)cc3)n2)c(C#N)c1-c1ccc(OCCOC(=O)[C@H](Cc2ccccc2)NC(=O)[C@@H](N)CCCCN)cc1 [Example 18, 2-{4-[2-Amino-6-({[2-(4-chlorophenyl)-1,3-thiazol-4-yl]methyl}sulfanyl)-3,5-dicyanopyridin-4-yl]-phenoxy}ethyl L-lysyl-L-phenylalaninate dihydrochloride]
solubility thermodynamic at 24 h [2]: 450 µg/mL
